Results on 31 compounds are retold here after patent publication US12110299B2, “Thiazole derivatives and pharmaceutically acceptable salts thereof” (YUNGJIN PHARM. CO., LTD., priority 2018, dated 2024).

For assay [1], the system named is MDA-MB-468 cells. In words: Anti-proliferative effect on MDA-MB-468 cells, inhibition rate at 100 nM (tetrazolium salt method). It is filed as cell-based. The following applies: Homo sapiens, 72 hours.
Protocol: Representative compounds of the present invention were tested at different concentrations (from 1000 nM to 25 nM) to assess their ability to inhibit the proliferation of MDA-MB-468 cells. Cells were grown in RPMI 1640 (Welgene)+10% FBS (Gibco)+1% penicillin/streptomycin (Gibco) and cultured at 37° C. in a humidified chamber in the presence of 5% CO2.
MDA-MB-468 cells cultured in 96-well cell culture plates were treated with representative compounds of the present invention and cultured for 72 hours.
Assay [2] concerns MDA-MB-468 cells. The assay can be described thus: Anti-proliferative effect on MDA-MB-468 cells, IC50 (MTT). Format: cell-based. The following applies: Homo sapiens, MDA-MB-468, 72 h.
Protocol: The compounds of the present invention were tested at different concentrations (from 1000 nM to 1 nM) to assess their ability for inhibiting the proliferation of MDAMB-468 cells. Cells were cultivated in RPMI 1640 (Welgene)+10% FBS (Gibco)+1% penicillin/streptomycin (Gibco) and cultured at 37° C. in a humidified chamber in the presence of 5% C02.
MDA-MB-468 cells cultured in 96-well cell culture plates were treated with the compounds of the present invention and incubated for 72 hours.
The next assay relates to HepG2 cells. The assay can be described thus: HepG2 cell viability assay (CCK-8). Format: cell-based, human. The note with it: Homo sapiens, HepG2, 72 h. On the procedure:
The ability to inhibit the proliferation of HepG2 cells, which are human hepatocellular carcinoma cells, was measured through the in vitro cell viability assay. Cells were cultured at 37° C. in a humidified condition in the presence of 5% CO2 using a culture medium of MEM (Welgene)+10% FBS (Gibco)+1% penicillin/streptomycin (Gibco). […] Cell viability was measured by CCK-8 method using tetrazolium salt, and the ability of the compounds according to the present invention to inhibit cancer cell proliferation was calculated.

The structures appear in SMILES notation.

For orientation: inhibition means the percentage by which the read-out fell short of the control. On to `C=CC(=O)Nc1ccc(-c2cccc(C(C)C(=O)Nc3ncc(C)s3)c2)cn1` (stereo not shown) [Example 1, N-(5-(3-(1-((5-methylthiazol-2-yl)amino)-1-oxopropan-2-yl)phenyl)pyridin-2-yl)acrylamide], for which the inhibition at 0.1 µM in the assay with MDA-MB-468 cells [1] came out at 54%. Broadly, the IC50 is the point on the concentration scale where inhibition reaches its midpoint. With `C=CC(=O)Nc1ccc(-c2cccc(C(C)C(=O)Nc3ncc(C4CC4)s3)c2)cn1` (stereo not shown) [Example 2, N-(5-(3-(1-((5-cyclopropylthiazol-2-yl)amino)-1-oxopropan-2-yl)phenyl)pyridin-2-yl)acrylamide], the inhibition at 0.1 µM in the assay on MDA-MB-468 cells [1] amounted to 50%. Besides, the IC50 with MDA-MB-468 cells [2] stood at 104 nM; in the assay on HepG2 cells, 15 nM. As to `C=CC(=O)Nc1ccc(-c2cccc(C(C)C(=O)Nc3ncc(CC)s3)c2)cn1` (stereo not shown) [Example 4, N-(5-(3-(1-((5-ethylthiazol-2-yl)amino)-1-oxopropan-2-yl)phenyl)pyridin-2-yl)acrylamide], in the assay with MDA-MB-468 cells [1], the inhibition at 0.1 µM was 56%. `CC(C(=O)Nc1ncc(C2CC2)s1)c1cccc(-c2ccc(NC(=O)/C=C/CN(C)C)nc2)c1` (stereo not shown) [Example 6, (E)-N-(5-(3-(1-((5-cyclopropylthiazol-2-yl)amino)-1-oxopropan-2-yl)phenyl)pyridin-2-yl)-4-(dimethylamino)but-2-enamide]: the inhibition at 0.1 µM in the assay with MDA-MB-468 cells [1] amounted to 66%. The IC50 was determined as 86 nM in the assay on MDA-MB-468 cells [2] and 22 nM in the assay on HepG2 cells. `C=CC(=O)Nc1ccc(-c2ccc(F)c(C(C)C(=O)Nc3ncc(C#N)s3)c2)nn1` (stereo not shown) [Example 11, N-(6-(3-(1-((5-cyanothiazol-2-yl)amino)-1-oxopropane-2-yl)-4-fluorophenyl)pyridazin-3-yl)acrylamide]: in the assay with MDA-MB-468 cells [1], the inhibition at 0.1 µM worked out at 53%. Take `C=CC(=O)Nc1ccc(-c2cccc([C@H](C)C(=O)Nc3ncc(C4CC4)s3)c2)cn1` [Example 14]: in the assay with MDA-MB-468 cells [1], the inhibition at 0.1 µM amounted to 74%. Also, the IC50 was 63 nM with MDA-MB-468 cells [2] and 5 nM with HepG2 cells. In the case of `C[C@H](C(=O)Nc1ncc(C2CC2)s1)c1cccc(-c2ccc(NC(=O)/C=C/CN(C)C)nc2)c1` [Example 15], in the assay with MDA-MB-468 cells [1], the inhibition at 0.1 µM was 73%. The compound further showed an IC50 in the assay on MDA-MB-468 cells [2] of 46 nM. In the case of `C=CC(=O)Nc1cncc(-c2cccc([C@H](C)C(=O)Nc3ncc(C4CC4)s3)c2)n1` [Example 16], the inhibition at 0.1 µM with MDA-MB-468 cells [1] was 53%.

In the case of `CCc1cnc(NC(=O)[C@@H](C)c2cccc(-c3ccc(NC(=O)/C=C/CN(C)C)nc3)c2)s1` [Example 17, (S,E)-4-(dimethylamino)-N-(5-(3-(1-((5-ethylthiazol-2-yl)amino)-1-oxopropan-2-yl)phenyl)pyridin-2-yl)but-2-enamide], the inhibition at 0.1 µM in the assay with MDA-MB-468 cells [1] was 70%. Also, half-maximal inhibition in the assay on MDA-MB-468 cells [2] (IC50) required 26 nM. With `C=CC(=O)Nc1cnc(-c2cccc([C@H](C)C(=O)Nc3ncc(C4CC4)s3)c2)cn1` [Example 22], in the assay with MDA-MB-468 cells [1], the inhibition at 0.1 µM stood at 72%.

Regarding `C=CC(=O)Nc1cnc(-c2cccc([C@H](C)C(=O)Nc3ncc(C#N)s3)c2)cn1` [Example 25, (S)-N-(5-(3-(1-((5-cyanothiazol-2-yl)amino)-1-oxopropan-2-yl)phenyl)pyrazin-2-yl)acrylamide], in the assay with MDA-MB-468 cells [1], the inhibition at 0.1 µM worked out at 71%. As to `C=CC(=O)Nc1ncc(-c2cccc([C@H](C)C(=O)Nc3ncc(C4CC4)s3)c2)cn1` [Example 27], the inhibition at 0.1 µM with MDA-MB-468 cells [1] was determined as 74%. For the compound `C=CC(=O)Nc1ccc(-c2cccc([C@H](C)C(=O)Nc3ncc(C4CC4)s3)c2)nn1` [Example 28], the inhibition at 0.1 µM with MDA-MB-468 cells [1] worked out at 74%. On the same count and under the same terms, with `C=CC(=O)Nc1ncc(-c2cccc([C@H](C)C(=O)Nc3ncc(C4CC4)s3)c2)cc1F` [Example 29] the figure was 75%. Still for that read-out and setting: with `C=CC(=O)Nc1ncc(-c2cccc([C@H](C)C(=O)Nc3ncc(C#N)s3)c2)cc1F` [Example 33, (S)-N-(5-(3-(1-((5-cyanothiazol-2-yl)amino)-1-oxopropan-2-yl)phenyl)-3-fluoropyridin-2-yl)acrylamide] the figure was 59%; with `C=CC(=O)Nc1cnc(-c2cccc([C@H](C)C(=O)Nc3ncc(C(C)C)s3)c2)cn1` [Example 36, (S)-N-(5-(3-(1-((5-isopropylthiazol-2-yl)amino)-1-oxopropan-2-yl)phenyl)pyrazin-2-yl)acrylamide], 64%; with `C=CC(=O)Nc1ccc(-c2cccc([C@H](C)C(=O)Nc3ncc(C(F)(F)F)s3)c2)cn1` [Example 38, (S)-N-(5-(3-(1-oxo-1-((5-(trifluoromethyl)thiazol-2-yl)amino)propan-2-yl)phenyl)pyridin-2-yl)acrylamide], 64%.

On to `C=CC(=O)Nc1ccc(-c2cccc([C@H](C)C(=O)Nc3ncc(C(F)(F)F)s3)c2)nn1` [Example 39, (S)-N-(6-(3-(1-oxo-1-((5-(trifluoromethyl)thiazol-2-yl)amino)propan-2-yl)phenyl)pyridazin-3-yl)acrylamide], for which the inhibition at 0.1 µM with MDA-MB-468 cells [1] is 67%. On the same count and under the same terms, with `C=CC(=O)Nc1ccc(-c2cccc([C@H](C)C(=O)Nc3ncc(C(C)C)s3)c2)nn1` [Example 40, (S)-N-(6-(3-(1-((5-isopropylthiazol-2-yl)amino)-1-oxopropan-2-yl)phenyl)pyridazin-3-yl)acrylamide] the figure was 64%. Same read-out and setting: next, `C=CC(=O)Nc1cnc(-c2cncc(C(C)C(=O)Nc3ncc(C(C)C)s3)c2)cn1` (stereo not shown) [Example 47, N-(5-(5-(1-((5-isopropylthiazol-2-yl)amino)-1-oxopropan-2-yl)pyridin-3-yl)pyrazin-2-yl) acrylamide]: 72%; `C=CC(=O)Nc1ccc(-c2cncc(C(C)C(=O)Nc3ncc(C(F)(F)F)s3)c2)nn1` (stereo not shown) [Example 49, N-(6-(5-(1-oxo-1-((5-(trifluoromethyl)thiazol-2-yl)amino)propan-2-yl)pyridin-3-yl)pyridazin-3-yl)acrylamide]: 67%; `C=CC(=O)Nc1ccc(-c2cc(C(C)C(=O)Nc3ncc(C4CC4)s3)ccn2)cn1` (stereo not shown) [Example 50, N-(4-(1-((5-cyclopropylthiazol-2-yl)amino)-1-oxopropan-2-yl)-[2,3′-bipyridine]-6′-yl)acrylamide]: 66%.

As for `C=CC(=O)Nc1ccc(-c2csc(C(C)C(=O)Nc3ncc(C(F)(F)F)s3)c2)cn1` (stereo not shown) [Example 53, N-(5-(5-(1-oxo-1-((5-(trifluoromethyl)thiazol-2-yl)amino)propan-2-yl)thiophen-3-yl)pyridin-2-yl)acrylamide], the inhibition at 0.1 µM in the assay with MDA-MB-468 cells [1] is 51%. Same read-out and setting: next, `C=CC(=O)Nc1cnc(-c2cncc(C(C)C(=O)Nc3ncc(Cl)s3)c2)cn1` (stereo not shown) [Example 61, N-(5-(5-(1-((5-chlorothiazol-2-yl)amino)-1-oxopropan-2-yl)pyridin-3-yl)pyrazine-2-yl)acrylamide]: 73%. As for `C[C@H](C(=O)Nc1ncc(C(F)(F)F)s1)c1cccc(-c2cnc(NC(=O)/C=C/CN3CC[C@@H](F)C3)cn2)c1` [Example 115, (E)-4-((R)-3-fluoropyrrolidin-1-yl)-N-(5-(3-((S)-1-oxo-1-((5-(trifluoromethyl)thiazol-2-yl)amino)propan-2-yl)phenyl)pyrazin-2-yl)but-2-enamide], the values for the IC50 in the assay with MDA-MB-468 cells [2] and with HepG2 cells were 75 nM and 12 nM, respectively. On to `CCc1cnc(NC(=O)[C@@H](C)c2cccc(-c3cnc4c(c3)CCN4C(=O)/C=C/CN(C)C)c2)s1` [Example 122, (S,E)-2-(3-(1-(4-(dimethylamino)but-2-enoyl)-2,3-dihydro-1H-pyrrolo[2,3-b]pyridin-5-yl)phenyl)-N-(5-ethylthiazol-2-yl)propanamide], for which the figures for the IC50 with MDA-MB-468 cells [2] and with HepG2 cells were 34 nM and 38 nM, respectively. On the same counts, the results for `CCc1cnc(NC(=O)[C@@H](C)c2cccc(-c3cnc(NC(=O)/C=C/CN4CC5CC4CO5)c(C#N)c3)c2)s1` (stereo partly drawn) [Example 123, (E)-4-(2-oxa-5-azabicyclo[2.2.1]heptan-5-yl)-N-(3-cyano-5-(3-((S)-1-((5-ethylthiazol-2-yl)amino)-1-oxopropan-2-yl)phenyl)pyridin-2-yl)but-2-enamide] are 24 nM and 11 nM. Regarding `CCc1cnc(NC(=O)[C@@H](C)c2cccc(-c3cnc(N(C)C(=O)/C=C/CN(C)C)c(C#N)c3)c2)s1` [Example 132, (S,E)-N-(3-cyano-5-(3-(1-((5-ethylthiazol-2-yl)amino)-1-oxopropan-2-yl)phenyl)pyridin-2-yl)-4-(dimethylamino)-N-methylbut-2-enamide], the IC50 is 32 nM with MDA-MB-468 cells [2] and 9.5 nM with HepG2 cells.

As for `CCc1cnc(NC(=O)[C@@H](C)c2cccc(-c3cnc(NC(=O)/C=C/CN4CCOCC4)c(C#N)c3)c2)s1` [Example 135, (S,E)-N-(3-cyano-5-(3-(1-((5-ethylthiazol-2-yl)amino)-1-oxopropan-2-yl)phenyl)pyridin-2-yl)-4-morpholinobut-2-enamide], the IC50 in the assay on MDA-MB-468 cells [2] stood at 48 nM; in the assay on HepG2 cells, 10 nM.

Turning to `CCc1cnc(NC(=O)C(C)c2cncc(-c3cnc(NC(=O)/C=C/CN(C)C)c(C#N)c3)c2)s1` (stereo not shown) [Example 137, (E)-N-(5-cyano-5′-(1-((5-ethylthiazol-2-yl)amino)-1-oxopropan-2-yl)-[3,3′-bipyridin]-6-yl)-4-(dimethylamino)but-2-enamide], the IC50 in the assay on MDA-MB-468 cells [2] came to 47 nM; with HepG2 cells, 18 nM.

Turning to `CCc1cnc(NC(=O)C(CC)c2cccc(-c3cnc(NC(=O)/C=C/CN(C)C)c(C#N)c3)c2)s1` (stereo not shown) [Example 138, (E)-N-(3-cyano-5-(3-(1-((5-ethylthiazol-2-yl)amino)-1-oxobutan-2-yl)phenyl)pyridin-2-yl)-4-(dimethylamino)but-2-enamide], the IC50 with MDA-MB-468 cells [2] was determined as 100 nM; in the assay on HepG2 cells, 52 nM.
